According to patent US10238621B2, “9,10-α,α-OH-taxane analogs and methods for production thereof” (priority 2003, dated 2019):

Key:
Type in all cases: cell-based
[1] = test system: Breast Cancer MCF-7 NCI-AR; assay: Inhibition of cell growth, Breast Cancer MCF-7 NCI-AR (MDR +, tubulin wild type); details: for Inhibition: MCF-7 NCI-AR
[2] = test system: MDR sensitive cancer cell lines; assay: Inhibition of cell growth against MDR sensitive cancer cell lines; details: result in words
[3] = test system: Squamous Cell Carcinoma FADU; assay: Inhibition of cell growth, Squamous Cell Carcinoma FADU (MDR −, tubulin wild type); details: concentration 0.05 ug/mL
Neuroblastoma SK-N-AS = assay: Inhibition of cell growth, Neuroblastoma SK-N-AS (MDR −, tubulin wild type)
[4] = test system: Ovarian Carcinoma 1A9PTX10; assay: Inhibition of cell growth, Ovarian Carcinoma 1A9PTX10 (MDR +, tubulin mutant)
[5] = Homo sapiens, MCF7, MCF-7 NCI-AR, concentration 0.5 ug/mL

SMILES: C=CC1O[C@H]2C[C@H]3OC[C@@]3(OC(C)=O)[C@H]3[C@H](OC(=O)c4ccccc4)[C@]4(O)C[C@H](OC(=O)[C@H](O)[C@@H](NC(=O)c5ccccc5)c5ccccc5)C(C)=C([C@H](OC(C)=O)[C@H](O1)[C@]23C)C4(C)C (stereo partly drawn) [TPI 285]
- Inhibition ([1]; concentration 0.5 ug/mL): 41%
- Inhibition ([1]; concentration 1.0 ug/mL): 51%
- Inhibition ([1]; concentration 2.0 ug/mL): 85%
- inhibition of cell growth against MDR sensitive cancer cell lines [2]: excellent inhibition of cell growth

SMILES: C=CC1O[C@H]2C[C@H]3OC[C@@]3(OC(C)=O)[C@H]3[C@H](OC(=O)c4ccccc4)[C@]4(O)C[C@H](OC(=O)[C@H](O)[C@H](CC(C)C)NC(=O)OC(C)(C)C)C(C)=C([C@H](OC(C)=O)[C@H](O1)[C@]23C)C4(C)C (stereo partly drawn) [TPI 287, 7,9-acrolein acetal-10-α-acetyl-2′-R,S-hydroxy-3′-S-isobutyl-3′-N-t-butoxy carbonyl taxane]
- inhibition at 0.05 µg/mL ([3]; Homo sapiens): 56%
- inhibition at 0.031 µg/mL ([1]; Homo sapiens, MCF7, MCF-7 NCI-AR, concentration 0.031 ug/mL): 13%
- inhibition at 0.061 µg/mL ([1]; Homo sapiens, MCF7, MCF-7 NCI-AR, concentration 0.061 ug/mL): 22%
- inhibition at 0.125 µg/mL ([1]; Homo sapiens, MCF7, MCF-7 NCI-AR, concentration 0.125 ug/mL): 37%
- inhibition at 0.25 µg/mL ([1]; Homo sapiens, MCF7, MCF-7 NCI-AR, concentration 0.25 ug/mL): 47%
- inhibition at 0.5 µg/mL [1, 5]: 80%
- inhibition at 0.05 µg/mL (Neuroblastoma SK-N-AS; Homo sapiens, concentration 0.05 ug/mL): 58%
- inhibition at 0.1 µg/mL ([4]; Homo sapiens, 1A9/ptx-10, 1A9PTX10, concentration 0.1 ug/mL): 51%
- inhibition at 0.2 µg/mL ([4]; Homo sapiens, 1A9/ptx-10, 1A9PTX10, concentration 0.2 ug/mL): 85%
- inhibition of cell growth against MDR sensitive cancer cell lines [2]: excellent inhibition of cell growth

SMILES: C=CC1O[C@H]2C[C@H]3OC[C@@]3(OC(C)=O)[C@H]3[C@H](OC(=O)c4ccccc4)[C@]4(O)C[C@H](OC(=O)[C@H](O)[C@@H](NC(=O)c5ccccc5)c5ccccc5)C(C)=C([C@H](OC(C)=O)[C@H](O1)[C@]23C)C4(C)C (stereo partly drawn) [TPI 251]
- inhibition at 0.5 µg/mL [1, 5]: 45%
- inhibition at 1 µg/mL ([1]; Homo sapiens, MCF7, MCF-7 NCI-AR, concentration 1.0 ug/mL): 65%
- inhibition at 2 µg/mL ([1]; Homo sapiens, MCF7, MCF-7 NCI-AR, concentration 2.0 ug/mL): 94%
- inhibition at 0.25 µg/mL ([4]; Homo sapiens, 1A9/ptx-10, 1A9PTX10, concentration 0.25 ug/mL): 93%
- inhibition at 0.5 µg/mL ([4]; Homo sapiens, 1A9/ptx-10, 1A9PTX10, concentration 0.5 ug/mL): 96%
- inhibition of cell growth against MDR sensitive cancer cell lines [2]: excellent inhibition of cell growth

SMILES: CC(=O)O[C@H]1C(=O)[C@@]2(C)[C@H]([C@H](OC(=O)c3ccccc3)[C@]3(O)C[C@H](OC(=O)[C@H](O)[C@@H](NC(=O)c4ccccc4)c4ccccc4)C(C)=C1C3(C)C)[C@]1(OC(C)=O)CO[C@@H]1C[C@@H]2O [Paclitaxel, reference compound]
- Inhibition [3]: 47%
- Inhibition ([1]; concentration 40 ug/mL): 55%
- Inhibition (Neuroblastoma SK-N-AS; concentration 0.1 ug/mL): 54%
- Inhibition ([4]; 1A9PTX10, concentration 5 ug/mL): 55%
